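Assay format: 96-well plates, 48-hour exposure. GI50 = concentration required for 50% inhibition of growth.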 Active and inactive are the calls of the source. Cut-off read from the data, not from the text of the source: active = GI50 up to about 1.1 µM and inactive = higher.
How the values were obtained:
Assay in all cases: DTP human tumour cell line panel, 48 h
A549 = tested on: A549
ACHN = tested on: ACHN
COLO 205 = tested on: COLO 205
DLD-1 = tested on: DLD-1
DMS-114 = tested on: DMS-114
DMS-273 = tested on: DMS-273
EKVX = tested on: EKVX
HCC 2998 = tested on: HCC 2998
HCT-15 = tested on: HCT-15
HL-60 = tested on: HL-60
IGROV-1 = tested on: IGROV-1
MOLT-4 = tested on: MOLT-4
OVCAR-3 = tested on: OVCAR-3
OVCAR-8 = tested on: OVCAR-8
SF-268 = tested on: SF-268
SK-MEL-28 = tested on: SK-MEL-28
SK-OV-3 = tested on: SK-OV-3
SN12C = tested on: SN12C
SNB-78 = tested on: SNB-78
UO-31 = tested on: UO-31

**Q.** `COc1ccc(/C=C2\CNC/C(=C\c3ccc(OC)cc3)C2=O)cc1` was tested. Which GI50 (A549) did it give?
**A.** 59.4 µM (inactive)

**Q.** And the GI50 (ACHN)?
**A.** > 100 µM (inactive)

**Q.** What about the GI50 (COLO 205) of the same molecule?
**A.** 49.4 µM (inactive)

**Q.** What about the GI50 (DLD-1) of the same molecule?
**A.** 21 µM (inactive)

**Q.** And the GI50 (DMS-114)?
**A.** 45.8 µM (inactive)

**Q.** And the GI50 (DMS-273)?
**A.** 23.2 µM (inactive)

**Q.** And the GI50 (EKVX)?
**A.** > 100 µM (inactive)

**Q.** And the GI50 (HCC 2998)?
**A.** 35.3 µM (inactive)

**Q.** What about the GI50 (HCT-15) of the same molecule?
**A.** 27.4 µM

**Q.** And the GI50 (HL-60)?
**A.** 14 µM (inactive)

**Q.** What about the GI50 (IGROV-1) of the same molecule?
**A.** 48.2 µM (inactive)

**Q.** And the GI50 (MOLT-4)?
**A.** 15.8 µM (inactive)

**Q.** And the GI50 (OVCAR-3)?
**A.** 35 µM (inactive)

**Q.** What about the GI50 (OVCAR-8) of the same molecule?
**A.** 16.1 µM (inactive)

**Q.** And the GI50 (SF-268)?
**A.** 24.1 µM (inactive)

**Q.** And the GI50 (SK-MEL-28)?
**A.** 87.9 µM (inactive)

**Q.** And the GI50 (SK-OV-3)?
**A.** > 100 µM (inactive)

**Q.** What about the GI50 (SN12C) of the same molecule?
**A.** 37.1 µM (inactive)

**Q.** What about the GI50 (SNB-78) of the same molecule?
**A.** 28.1 µM (inactive)

**Q.** What about the GI50 (UO-31) of the same molecule?
**A.** > 100 µM (inactive)

**Q.** Which GI50 (A549) does the source give for `CC(C)(C)C1CCC2c3c([nH]c4ccccc34)C3C(=O)N(c4ccccc4)C(=O)C3C2C1` (stereo not given) here?
**A.** 10.8 µM (inactive)

**Q.** And the GI50 (ACHN)?
**A.** 4.94 µM (inactive)

**Q.** And the GI50 (COLO 205)?
**A.** 4.35 µM (inactive)

**Q.** And the GI50 (DLD-1)?
**A.** 20.4 µM (inactive)

**Q.** What about the GI50 (DMS-114) of the same molecule?
**A.** 6.15 µM (inactive)

**Q.** What about the GI50 (DMS-273) of the same molecule?
**A.** 3.34 µM (inactive)

**Q.** And the GI50 (EKVX)?
**A.** 14.9 µM (inactive)

**Q.** What about the GI50 (HCC 2998) of the same molecule?
**A.** 9.53 µM (inactive)

**Q.** And the GI50 (HCT-15)?
**A.** 22.8 µM

**Q.** What about the GI50 (HL-60) of the same molecule?
**A.** 12.8 µM (inactive)

**Q.** What about the GI50 (IGROV-1) of the same molecule?
**A.** 11.1 µM (inactive)

**Q.** And the GI50 (MOLT-4)?
**A.** 3.31 µM (inactive)

**Q.** What about the GI50 (OVCAR-3) of the same molecule?
**A.** 4.01 µM (inactive)

**Q.** What about the GI50 (OVCAR-8) of the same molecule?
**A.** 4.84 µM (inactive)

**Q.** What about the GI50 (SF-268) of the same molecule?
**A.** 13.6 µM (inactive)

**Q.** What about the GI50 (SK-MEL-28) of the same molecule?
**A.** 4.97 µM (inactive)

**Q.** What about the GI50 (SK-OV-3) of the same molecule?
**A.** 2.15 µM (inactive)

**Q.** And the GI50 (SN12C)?
**A.** 5.3 µM (inactive)

**Q.** And the GI50 (SNB-78)?
**A.** 5.5 µM (inactive)

**Q.** And the GI50 (UO-31)?
**A.** 2.62 µM (inactive)

**Q.** How did the GI50 (A549) turn out when `COC(=O)N/N=c1\cc(C(=O)Nc2ccc(C)c(C)c2)oc2cc(O)ccc12` was run?
**A.** > 100 µM (inactive)

**Q.** What about the GI50 (ACHN) of the same molecule?
**A.** > 100 µM (inactive)

**Q.** What about the GI50 (COLO 205) of the same molecule?
**A.** > 100 µM (inactive)

**Q.** And the GI50 (DLD-1)?
**A.** > 100 µM (inactive)

**Q.** And the GI50 (DMS-114)?
**A.** > 100 µM (inactive)

**Q.** What about the GI50 (DMS-273) of the same molecule?
**A.** > 100 µM (inactive)

**Q.** And the GI50 (EKVX)?
**A.** > 100 µM (inactive)

**Q.** What about the GI50 (HCC 2998) of the same molecule?
**A.** > 100 µM (inactive)

**Q.** What about the GI50 (HCT-15) of the same molecule?
**A.** > 100 µM

**Q.** And the GI50 (HL-60)?
**A.** > 100 µM (inactive)

**Q.** And the GI50 (IGROV-1)?
**A.** > 100 µM (inactive)

**Q.** And the GI50 (MOLT-4)?
**A.** > 100 µM (inactive)

**Q.** And the GI50 (OVCAR-3)?
**A.** > 100 µM (inactive)

**Q.** What about the GI50 (OVCAR-8) of the same molecule?
**A.** > 100 µM (inactive)

**Q.** And the GI50 (SF-268)?
**A.** > 100 µM (inactive)

**Q.** And the GI50 (SK-MEL-28)?
**A.** > 100 µM (inactive)

**Q.** And the GI50 (SK-OV-3)?
**A.** > 100 µM (inactive)

**Q.** What about the GI50 (SN12C) of the same molecule?
**A.** > 100 µM (inactive)

**Q.** What about the GI50 (SNB-78) of the same molecule?
**A.** > 100 µM (inactive)

**Q.** And the GI50 (UO-31)?
**A.** > 100 µM (inactive)

**Q.** What does the source list for `COc1cc(Cn2c3ccccc3c3cc(C)c4c(c32)C=CC(C)(CCC=C(C)C)O4)cc2c1[nH]c1ccccc12` (stereo not given) [CHRESTFOLINE C]?
**A.** GI50 (A549): > 100 µM (inactive); GI50 (ACHN): > 100 µM (inactive); GI50 (COLO 205): > 100 µM (inactive); GI50 (DLD-1): > 100 µM (inactive); GI50 (DMS-114): > 100 µM (inactive); GI50 (DMS-273): > 100 µM (inactive); GI50 (EKVX): > 100 µM (inactive); GI50 (HCC 2998): > 100 µM (inactive); GI50 (HCT-15): > 100 µM; GI50 (HL-60): > 100 µM (inactive); GI50 (IGROV-1): > 100 µM (inactive); GI50 (MOLT-4): > 100 µM (inactive); GI50 (OVCAR-3): > 100 µM (inactive); GI50 (OVCAR-8): > 100 µM (inactive); GI50 (SF-268): > 100 µM (inactive); GI50 (SK-MEL-28): > 100 µM (inactive); GI50 (SK-OV-3): > 100 µM (inactive); GI50 (SN12C): > 100 µM (inactive); GI50 (SNB-78): > 100 µM (inactive); GI50 (UO-31): > 100 µM (inactive)

— ChEMBL document CHEMBL1201862, “PubChem BioAssay data set” (2004)
